Reference: article PMC5179006, “Procarcinogens – Determination and Evaluation by Yeast-Based Biosensor Transformed with Plasmids Incorporating RAD54 Reporter Construct and Cytochrome P450 Genes” (PLoS ONE, 2016)
Read-outs that look alike come from different tables or passages of the source.

Experiments:
[1] = tested on: CYP3A4 + RAD54 system (CPR-CYP3A4 and RAD54-GFP constructs)
[2] = tested on: CYP2B6 + RAD54 system (CPR-CYP2B6 and RAD54-GFP constructs)
[3] = tested on: CYP2D6 + RAD54 system (CPR-CYP2D6 and RAD54-GFP constructs)
[4] = tested on: RAD54 system (only the RAD54-GFP construct)
[5] = tested on: NCs system (control pESC-URA and pUMGP5 plasmids)
RAD54-GFP integrant = details: concentration 1.02–33 μg/mL; ref Walsh et al. 2005 [30]; cited from earlier work
[6] = tested on: RAD54-GFP integrant + CYP3A4; details: cited from earlier work
[7] = tested on: RAD54-GFP integrant + CYP1A2; details: cited from earlier work
recombinant human CYP3A4 = details: 3A4+ clone microsomes; nonlinear regression
CYP2B6 [8] = target: T1, CYP2B6 (Homo sapiens, UniProt P20813); details: 2B6+ clone microsomes; nonlinear regression
CYP3A4 = test: in vitro; details: human, pH 7.4, Km, 3A4+ clone microsomes; nonlinear regression; substrate 1–100 μM, 37°C
CYP2B6 [9] = target: T1, CYP2B6; test: in vitro; details: pH 7.4, Km, 2B6+ clone microsomes, nonlinear regression, substrate 1–100 μM, 37°C
recombinant human CYP2D6 = recombinant human CYP2D6 (Homo sapiens, UniProt P10635); test: CYP activity assay, deethylation of fluorogenic substrate by microsomes of 2D6+ clone; details: 2D6+ clone microsomes, nonlinear regression
in vitro = details: Saccharomyces cerevisiae
[10] = substrate: CCOc1ccc2cc(C#N)c(=O)oc2c1; test: cells, lysate or membranes named; details: other: 2D6+ clone microsomes, nonlinear regression, substrate 1–100 μM, 37°C
[11] = concentration 1.02–33 μg/mL, ref Walsh et al. 2005 [30]

T1 sequence (P20813 whole entry): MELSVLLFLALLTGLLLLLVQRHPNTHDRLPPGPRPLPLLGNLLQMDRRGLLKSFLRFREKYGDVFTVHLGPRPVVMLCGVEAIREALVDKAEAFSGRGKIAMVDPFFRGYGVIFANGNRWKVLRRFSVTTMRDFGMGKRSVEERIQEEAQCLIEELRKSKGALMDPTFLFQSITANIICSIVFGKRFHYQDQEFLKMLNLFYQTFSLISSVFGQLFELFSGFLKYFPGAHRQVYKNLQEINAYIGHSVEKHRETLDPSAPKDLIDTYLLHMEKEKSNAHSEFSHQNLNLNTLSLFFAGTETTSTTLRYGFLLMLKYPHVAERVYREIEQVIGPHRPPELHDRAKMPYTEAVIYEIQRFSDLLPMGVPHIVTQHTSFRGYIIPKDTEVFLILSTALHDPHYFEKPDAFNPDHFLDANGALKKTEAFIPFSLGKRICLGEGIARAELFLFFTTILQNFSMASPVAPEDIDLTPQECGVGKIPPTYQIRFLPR

Molecule: COS(C)(=O)=O [Methyl methanesulfonate, methyl methanesulfonate]
- GFP fold induction signal, CYP3A4 + RAD54 ([1]; 25 μM, 16 h at 30°C): + (positive (>1.3 GFP fold induction), + (1.3, 2])
- GFP fold induction signal, CYP3A4 + RAD54 ([1]; 50 μM, 16 h at 30°C): +++ (+++ (3, 4])
- GFP fold induction signal, CYP3A4 + RAD54 ([1]; 100 μM, 16 h at 30°C): ++++ (++++ (4, ∞])
- Genotoxicity result, present study, CYP3A4 + RAD54 ([1]; concentration 2.75–11.01 μg/mL): +
- GFP fold induction signal, CYP2B6 + RAD54 ([2]; 25 μM, 16 h at 30°C): + (positive (>1.3 GFP fold induction), + (1.3, 2])
- GFP fold induction signal, CYP2B6 + RAD54 ([2]; 50 μM, 16 h at 30°C): +++ (+++ (3, 4])
- GFP fold induction signal, CYP2B6 + RAD54 ([2]; 100 μM, 16 h at 30°C): ++++ (++++ (4, ∞])
- Genotoxicity result, present study, CYP2B6 + RAD54 ([2]; concentration 2.75–11.01 μg/mL): +
- GFP fold induction signal, CYP2D6 + RAD54 ([3]; 25 μM, 16 h at 30°C): + (positive (>1.3 GFP fold induction), + (1.3, 2])
- GFP fold induction signal, CYP2D6 + RAD54 ([3]; 50 μM, 16 h at 30°C): +++ (+++ (3, 4])
- GFP fold induction signal, CYP2D6 + RAD54 ([3]; 100 μM, 16 h at 30°C): ++++ (++++ (4, ∞])
- Genotoxicity result, present study, CYP2D6 + RAD54 ([3]; concentration 2.75–11.01 μg/mL): +
- GFP fold induction signal, RAD54 ([4]; 25 μM, 16 h at 30°C): + (positive (>1.3 GFP fold induction), + (1.3, 2])
- GFP fold induction signal, RAD54 ([4]; 50 μM, 16 h at 30°C): +++ (+++ (3, 4])
- GFP fold induction signal, RAD54 ([4]; 100 μM, 16 h at 30°C): ++++ (++++ (4, ∞])
- Genotoxicity result, present study, RAD54 ([4]; concentration 2.75–11.01 μg/mL): +
- GFP fold induction signal, NCs ([5]; 25 μM, 16 h at 30°C): – (Negative (≤1.3 GFP fold induction),–)
- GFP fold induction signal, NCs ([5]; 50 μM, 16 h at 30°C): – (Negative (≤1.3 GFP fold induction),–)
- GFP fold induction signal, NCs ([5]; 100 μM, 16 h at 30°C): – (Negative (≤1.3 GFP fold induction),–)
- Genotoxicity result, published report, RAD54-GFP integrant (RAD54-GFP integrant): +
- Genotoxicity result, published report, RAD54-GFP integrant + CYP3A4 [6, 11]: +
- Genotoxicity result, published report, RAD54-GFP integrant + CYP1A2 [7, 11]: +

Molecule: N-nitrosodimethylamine
- GFP fold induction signal, CYP3A4 + RAD54 [1]: – (key: Negative (≤1.3 GFP fold induction),–; positive (>1.3 GFP fold induction), + (1.3, 2]; ++ (2, 3]; +++ (3, 4]; ++++ (4, ∞])
- Genotoxicity result, present study, CYP2B6 + RAD54 [2]: +
- GFP fold induction signal, CYP2D6 + RAD54 [3]: – (key: Negative (≤1.3 GFP fold induction),–; positive (>1.3 GFP fold induction), + (1.3, 2]; ++ (2, 3]; +++ (3, 4]; ++++ (4, ∞])
- GFP fold induction [4]: ≤ 1.3
- GFP fold induction signal, RAD54 [4]: – (key: Negative (≤1.3 GFP fold induction),–; positive (>1.3 GFP fold induction), + (1.3, 2]; ++ (2, 3]; +++ (3, 4]; ++++ (4, ∞])
- GFP fold induction signal, NCs [5]: – (key: Negative (≤1.3 GFP fold induction),–; positive (>1.3 GFP fold induction), + (1.3, 2]; ++ (2, 3]; +++ (3, 4]; ++++ (4, ∞])
- Genotoxicity result, published report, RAD54-GFP integrant + CYP3A4 [6]: +

Molecule: CCOc1ccc2cc(C#N)c(=O)oc2c1 [7-ethoxycoumarin-3-carbonitrile]
- Vmax (recombinant human CYP3A4): 3.2 pmol/pmol CYP/min
- Vmax (CYP2B6 [8]): 2.7 pmol/pmol CYP/min
- Km (CYP3A4): 3.5 µM
- Km (CYP2B6 [9]): 3.7 µM
- Vmax (recombinant human CYP2D6): ~ 4.7 pmol/pmol CYP/min
- Km (recombinant human CYP2D6; substrate 1–100 μM, 37°C): ~2.1 µM

Molecule: c1ccc2c(c1)cc1ccc3cccc4ccc2c1c34 [Benzo(a)pyrene, benzo(a)pyrene]
- Genotoxicity result, present study, CYP3A4 + RAD54 [1]: +
- GFP fold induction signal, CYP3A4 + RAD54 ([1]; 10 μM, 16 h at 30°C): + (positive (>1.3 GFP fold induction), + (1.3, 2])
- GFP fold induction signal, CYP3A4 + RAD54 ([1]; 20 μM, 16 h at 30°C): + (positive (>1.3 GFP fold induction), + (1.3, 2])
- GFP fold induction signal, CYP3A4 + RAD54 ([1]; 40 μM, 16 h at 30°C): ++ (++ (2, 3])
- GFP fold induction signal, CYP2B6 + RAD54 ([2]; 10 μM, 16 h at 30°C): – (Negative (≤1.3 GFP fold induction),–)
- GFP fold induction signal, CYP2B6 + RAD54 ([2]; 20 μM, 16 h at 30°C): – (Negative (≤1.3 GFP fold induction),–)
- GFP fold induction signal, CYP2B6 + RAD54 ([2]; 40 μM, 16 h at 30°C): – (Negative (≤1.3 GFP fold induction),–)
- GFP fold induction signal, CYP2D6 + RAD54 ([3]; 10 μM, 16 h at 30°C): – (Negative (≤1.3 GFP fold induction),–)
- GFP fold induction signal, CYP2D6 + RAD54 ([3]; 20 μM, 16 h at 30°C): – (Negative (≤1.3 GFP fold induction),–)
- GFP fold induction signal, CYP2D6 + RAD54 ([3]; 40 μM, 16 h at 30°C): – (Negative (≤1.3 GFP fold induction),–)
- GFP fold induction signal, RAD54 ([4]; 10 μM, 16 h at 30°C): – (Negative (≤1.3 GFP fold induction),–)
- GFP fold induction signal, RAD54 ([4]; 20 μM, 16 h at 30°C): – (Negative (≤1.3 GFP fold induction),–)
- GFP fold induction signal, RAD54 ([4]; 40 μM, 16 h at 30°C): – (Negative (≤1.3 GFP fold induction),–)
- GFP fold induction signal, NCs ([5]; 10 μM, 16 h at 30°C): – (Negative (≤1.3 GFP fold induction),–)
- GFP fold induction signal, NCs ([5]; 20 μM, 16 h at 30°C): – (Negative (≤1.3 GFP fold induction),–)
- GFP fold induction signal, NCs ([5]; 40 μM, 16 h at 30°C): – (Negative (≤1.3 GFP fold induction),–)
- fold induction (in vitro): ≤ 1.3

Molecule: aflatoxin B1
- Genotoxicity result, present study, CYP3A4 + RAD54 [1]: +
- GFP fold induction signal, CYP3A4 + RAD54 ([1]; 0.1 µM): + (key: Negative (≤1.3 GFP fold induction),–; positive (>1.3 GFP fold induction), + (1.3, 2]; ++ (2, 3]; +++ (3, 4]; ++++ (4, ∞])
- GFP fold induction signal, CYP3A4 + RAD54 ([1]; 0.2 µM): ++ (key: Negative (≤1.3 GFP fold induction),–; positive (>1.3 GFP fold induction), + (1.3, 2]; ++ (2, 3]; +++ (3, 4]; ++++ (4, ∞])
- GFP fold induction signal, CYP3A4 + RAD54 ([1]; 0.4 µM): ++ (key: Negative (≤1.3 GFP fold induction),–; positive (>1.3 GFP fold induction), + (1.3, 2]; ++ (2, 3]; +++ (3, 4]; ++++ (4, ∞])
- Genotoxicity result, present study, CYP2B6 + RAD54 [2]: +
- GFP fold induction signal, CYP2B6 + RAD54 ([2]; 0.1 µM): – (key: Negative (≤1.3 GFP fold induction),–; positive (>1.3 GFP fold induction), + (1.3, 2]; ++ (2, 3]; +++ (3, 4]; ++++ (4, ∞])
- GFP fold induction signal, CYP2B6 + RAD54 ([2]; 0.2 µM): – (key: Negative (≤1.3 GFP fold induction),–; positive (>1.3 GFP fold induction), + (1.3, 2]; ++ (2, 3]; +++ (3, 4]; ++++ (4, ∞])
- GFP fold induction signal, CYP2B6 + RAD54 ([2]; 0.4 µM): + (key: Negative (≤1.3 GFP fold induction),–; positive (>1.3 GFP fold induction), + (1.3, 2]; ++ (2, 3]; +++ (3, 4]; ++++ (4, ∞])
- GFP fold induction signal, CYP2D6 + RAD54 ([3]; 0.1 µM): – (key: Negative (≤1.3 GFP fold induction),–; positive (>1.3 GFP fold induction), + (1.3, 2]; ++ (2, 3]; +++ (3, 4]; ++++ (4, ∞])
- GFP fold induction signal, CYP2D6 + RAD54 ([3]; 0.2 µM): – (key: Negative (≤1.3 GFP fold induction),–; positive (>1.3 GFP fold induction), + (1.3, 2]; ++ (2, 3]; +++ (3, 4]; ++++ (4, ∞])
- GFP fold induction signal, CYP2D6 + RAD54 ([3]; 0.4 µM): – (key: Negative (≤1.3 GFP fold induction),–; positive (>1.3 GFP fold induction), + (1.3, 2]; ++ (2, 3]; +++ (3, 4]; ++++ (4, ∞])
- GFP fold induction [4]: ≤ 1.3
- GFP fold induction signal, RAD54 ([4]; 0.1 µM): – (key: Negative (≤1.3 GFP fold induction),–; positive (>1.3 GFP fold induction), + (1.3, 2]; ++ (2, 3]; +++ (3, 4]; ++++ (4, ∞])
- GFP fold induction signal, RAD54 ([4]; 0.2 µM): – (key: Negative (≤1.3 GFP fold induction),–; positive (>1.3 GFP fold induction), + (1.3, 2]; ++ (2, 3]; +++ (3, 4]; ++++ (4, ∞])
- GFP fold induction signal, RAD54 ([4]; 0.4 µM): – (key: Negative (≤1.3 GFP fold induction),–; positive (>1.3 GFP fold induction), + (1.3, 2]; ++ (2, 3]; +++ (3, 4]; ++++ (4, ∞])
- GFP fold induction signal, NCs ([5]; 0.1 µM): – (key: Negative (≤1.3 GFP fold induction),–; positive (>1.3 GFP fold induction), + (1.3, 2]; ++ (2, 3]; +++ (3, 4]; ++++ (4, ∞])
- GFP fold induction signal, NCs ([5]; 0.2 µM): – (key: Negative (≤1.3 GFP fold induction),–; positive (>1.3 GFP fold induction), + (1.3, 2]; ++ (2, 3]; +++ (3, 4]; ++++ (4, ∞])
- GFP fold induction signal, NCs ([5]; 0.4 µM): – (key: Negative (≤1.3 GFP fold induction),–; positive (>1.3 GFP fold induction), + (1.3, 2]; ++ (2, 3]; +++ (3, 4]; ++++ (4, ∞])
- Genotoxicity result, published report, RAD54-GFP integrant + CYP1A2 [7]: +

B1: recombinant human CYP2D6 (Homo sapiens) (protein)
chain: MGLEALVPLAVIVAIFLLLVDLMHRRQRWAARYPPGPLPLPGLGNLLHVDFQNTPYCFDQLRRRFGDVFSLQLAWTPVVVLNGLAAVREALVTHGEDTADRPPVPITQILGFGPRSQGVFLARYGPAWREQRRFSVSTLRNLGLGKKSLEQWVTEEAACLCAAFANHSGRPFRPNGLLDKAVSNVIASLTCGRRFEYDDPRFLRLLDLAQEGLKEESGFLREVLNAVPVLLHIPALAGKVLRFQKAFLTQLDELLTEHRMTWDPAQPPRDLTEAFLAEMEKAKGNPESSFNDENLRIVVADLFSAGMVTTSTTLAWGLLLMILHPDVQRRVQQEIDDVIGQVRRPEMGDQAHMPYTTAVIHEVQRFGDIVPLGVTHMTSRDIEVQGFRIPKGTTLITNLSSVLKDEAVWEKPFRFHPEHFLDAQGHFVKPEAFLPFSAGRRACLGEPLARMELFLFFTSLLQHFSFSVPTGQPRPSHHGVFAFLVSPSPYELCAVPR
- Km [10]: 2.1 µM
- kcat [10]: 4.7 pmol/pmol CYP/min
- kcat/Km [10]: 2.2 μL/pmol CYP/min
